Source: publication PMC6337650 (Molecules, 2018)

Key:
Type in all cases: cell-based, human
[1] = MTT antiproliferative assay, HCT-116; conditions: human, HCT-116 colorectal cancer cells versus normal L02 cells; HCT-116 vs L02
Method in brief: (§1)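 Cells seeded at 9 × 10^3 per well, allowed 24 h to adhere, then exposed 48 h to compound at 1, 10, 50 and 100 µM. MTT added to 2 mg/mL for 4 h, formazan dissolved in DMSO, OD read at 492 nm; inhibition calculated relative to untreated and blank wells.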

[2] = test system: HCT-116 cells; experiment: MTT antiproliferative assay, HCT-116
Method in brief: as §1

[3] = MTT antiproliferative assay, BEL-7402; conditions: human, BEL-7402 liver cancer cells versus normal L02 cells; BEL-7402 vs L02
Method in brief: as §1

[4] = test system: BEL-7402 cells; experiment: MTT antiproliferative assay, BEL-7402
Method in brief: as §1

[5] = MTT antiproliferative assay, HepG2; conditions: human, HepG2 liver cancer cells versus normal L02 cells; HepG2 vs L02
Method in brief: as §1

[6] = test system: HepG2 cells; experiment: MTT antiproliferative assay, HepG2
Method in brief: as §1

[7] = test system: HCT-116 cells; experiment: Cell cycle analysis by flow cytometry (PI); conditions: 24 h; for proportion of cells in the S phase: control 18.64%; for proportion of cells in the G1 phase: control 70.67%
Procedure: HCT-116 cells were plated in 6-well plates (5.0 × 10^5 cells per well) and incubated at 37 °C for 24 h. Exponentially growing cells were then incubated with compound 5d at 5 and 15 µM. After 24 h, untreated cells (control) or cells treated with compound 5d were centrifuged at 1000 rpm for 10 min and then fixed in 70% ethanol at −20 °C for at least 24 h. The cells were subsequently resuspended in phosphate-buffered saline (PBS) containing 0.1 mg/mL of RNase A and 5 µg/mL propidium iodide (PI). The cellular DNA content for the cell cycle distribution analysis was measured by flow cytometry using a FACSCalibur flow cytometer with Cell Quest software (Becton-Dickinson, Franklin Lakes, NJ, USA), plotting at least 30,000 events per sample. The percentage of cells in the G1, S and G2 phases of the cell cycle were determined using the ModFit LT version 4.0 software package (Verity Software, Topsham, ME, USA).

[8] = test system: HCT-116 cells; experiment: Apoptosis by annexin V-FITC/propidium iodide flow cytometry; conditions: 24 h; for percentage of total apoptotic cells (UR + LR): control 5.98%
Procedure: Apoptosis was detected using an Apoptosis Detection Kit (Invitrogen, Eugene, OR, USA). In brief, cells were cultured in 6-well plates (5.0 × 10^5 cells per well) and incubated at 37 °C for 24 h. Cells with exponential growth were then incubated with compound 5d at 5 and 15 µM. Following 24 h of incubation, the cells were collected, washed twice with PBS and once with 1 × binding buffer and then stained with […] of annexin V-FITC and […] of PI 5mg/mL in 1 × binding buffer for 30 min at room temperature in the dark. Apoptotic cells were enumerated using a FACSCalibur flow cytometer with Cell Quest software (Becton–Dickinson, Franklin Lakes, NJ, USA).

[9] = test system: Cyclin B1; experiment: Western blot, cyclin B1 in HCT-116 cells; conditions: HCT-116, 5, 10 and 15 μM, 24 h, concentration-dependent
Procedure: HCT-116 cells were cultured with different concentrations of compound 5d for 24 h. Then, the floating cells was collected and washed two times with ice cold PBS. The pellet was resuspended in lysis buffer. After the cells were lysed on ice for 20 min, lysates were centrifuged at 12,000 rpm at 4 °C for 15 min. The protein concentration in the supernatant was determined using BCA protein assay reagents. Equal amounts of protein (50 μg) were resolved using sodium dodecyl sulphate-polyacrylamide gel electrophoresis (SDS-PAGE) (8−12% acrylamide gels) and transferred to a PVDF Hybond-P membrane. Membranes were blocked with PBS containing 5% non-fat milk for 1 h at room temperature. Membranes were then incubated with primary antibodies against Cyclin A (ENT1167, Elabscience, Wuhan, China), Cyclin E1 (ENT1176, Elabscience, Wuhan, China), Cyclin B1 (ENT1169, Elabscience, Wuhan, China) and β-actin (ENM0028, Elabscience, Wuhan, China), with gentle rotation overnight at 4 °C. Membranes were next incubated with fluorescent secondary antibodies for 2 h. Proteins were detected by electrochemiluminescence (Bio-Rad, Hercules, CA, USA).

[10] = IC50 on normal cells (L02)/IC50 on cancer cells

For Cc1ccc(-n2cc(CNC(=O)COC(=O)[C@]3(C)CCC[C@@]4(C)[C@@H]5CC[C@@]6(C)C[C@]5(CC[C@@H]43)CC6=O)nn2)cc1 [Compound 5d, 2-oxo-2-(((1-(p-tolyl)-1H-1,2,3-triazol-4-yl)methyl)amino)ethyl(4R,4aS,6aR,9S,11aR,11bS)-4,9,11b-trimethyl-8-oxotetradecahydro-6a,9-methanocyclohepta[a]naphthalene-4-carboxylate], the selectivity ratio at 48 h [1] was 38.2, the inhibition at 100 µM ([2]; Homo sapiens, HCT-116, 100 μM, 48 h, MTT, mean ± SD, n=3, read-out: % Growth Inhibition at 100 μM HCT-116) was 84.6 ± 0.96% and the IC50 ([2]; Homo sapiens, HCT-116, 48 h, MTT, mean ± SD, n=3) was 5.38 ± 0.26 µM. The “Selectivity Index HCT-116” value [2, 10] was 29.93, the “fold more active than 5-FU” value ([2]; against HCT-116 cells) was 4.6 fold and the selectivity ratio at 48 h [3] was 11.2. For the same compound, the inhibition at 100 µM ([4]; Homo sapiens, Bel-7402, 100 μM, 48 h, MTT, mean ± SD, n=3, read-out: % Growth Inhibition at 100 μM BEL-7402) was 86.5 ± 0.87%, the IC50 ([4]; Homo sapiens, Bel-7402, 48 h, MTT, mean ± SD, n=3) was 15.9 ± 0.41 µM and the “Selectivity Index BEL-7402” value [4, 10] was 10.12. For the same compound, the “fold more active than 5-FU” value ([4]; against BEL-7402 cells) was 1.3 fold, the selectivity ratio at 48 h [5] was 22 and the inhibition at 100 µM ([6]; Homo sapiens, HepG2, 100 μM, 48 h, MTT, mean ± SD, n=3, read-out: % Growth Inhibition at 100 μM HepG2) was 82.8 ± 0.86%. The IC50 ([6]; Homo sapiens, HepG2, 48 h, MTT, mean ± SD, n=3) was 8.92 ± 0.44 µM, the “Selectivity Index HepG2” value [6, 10] was 18.05 and the “fold more active than 5-FU” value ([6]; against HepG2 cells) was 2.6 fold. For the same compound, the “proportion of cells in the S phase” value ([7]; 5 μM) was 25.70%, the “proportion of cells in the G1 phase” value ([7]; 5 μM) was 51.67% and the “proportion of cells in the S phase” value ([7]; 15 μM) was 42.31%. For the same compound, the “proportion of cells in the G1 phase” value ([7]; 15 μM) was 41.32%, the “percentage of total apoptotic cells (UR + LR)” value ([8]; 5 μM) was 7.67% and the “percentage of total apoptotic cells (UR + LR)” value ([8]; 15 μM) was 24.94%. The “dead cells (UL)” value ([8]; 15 μM, control 8.84%) was 49.22% and the “cyclin B1 protein level” value [9] was “increasing”.
